Results taken from US10537611B2, “Methods of treating lung cancer” (Five Prime Therapeutics, Inc., priority 2011, dated 2020).

How the values were obtained:
[1] = test system: DMS114 cells; test: CellTiter-Glo cell number, DMS114; type: cell-based, human; details: 15 μg/ml, 4 days, 10%, 1% or 0.1% FBS
Text: A panel of lung cancer cell lines displaying potential amplification of the FGFR1 gene was identified using CONAN (http://www.sanger.ac.uk/cgi-bin/genetics/CGP/conan/search.cgi) and Tumorscape (http://www.broadinstitute.org/tumorscape/pages/portalHomejsf). CONAN and Tumorscape represent public data mining tools to extract gene copy number information for predefined or user defined loci across the SNP6.0 dataset of cancer. Lung cancer cell lines DMS53, DMS114, NCI-H1581 and NCI-H520 were identified as having potential amplification of the FGFR1 gene (>4 copies/cell) and were selected for further analysis. Human small cell lung cancer (SCLC) cell lines DMS53 and DMS114 were purchased from ATCC (Manassas, Va.; Cat. No. CRL-2062; Cat. No. CRL-2066, respectfully). The cells were cultured in Waymouth's MB 752/1 medium+10% FBS+2 mM L-glutamine at 37° C. in a humidified atmosphere with 5% CO2. […]
To determine cell number the CellTiter-Glo® Luminescent Cell Viability Assay (Promega, Madison, Wis.) was employed. CellTiter-Glo® is a homogeneous method of determining the number of viable cells in culture based on quantitation of the ATP present, an indicator of metabolically active cells. […] Luminescence was then determined on an EnVision™ Multilabel Plate Reader (PerkinElmer, Boston, Mass.) with a 0.2 second integration time. Results were expressed as relative light units (RLU)/well.

[2] = test system: NCI-H226 cells; test: Tritiated thymidine incorporation, NCI-H226; type: cell-based, human; details: NCI-H226, no FGFR1 gene amplification
Protocol: To determine the impact of FGFR1-ECD.339-Fc on lung cancer cell lines in tissue culture, cells were plated in a Microtest™ 96-well tissue culture plate (Becton Dickenson, Franklin Lakes, N.J.) at a density of 5×10^3 cells/well in medium containing 10%, 1% or 0.1% FBS in the presence or absence of 15 μg/ml FGFR1-ECD.339-Fc (SEQ ID NO: 6) or an unrelated ECD-Fc fusion protein (as a negative control). Plates were incubated at 37° C. at 5% CO2 for 4 days and then assayed to determine the impact of FGFR1-ECD.339-Fc on cell number and proliferation.
To determine the impact of FGFR1-ECD.339-Fc on cell proliferation the tritiated thymidine ([3H]-TdR) incorporation assay was employed. Following incubation of lung cancer cell lines with FGFR1-ECD.339-Fc or an unrelated ECD-Fc negative control, tritiated thymidine ([3H]-TdR; PerkinElmer, Boston, Mass.) was added at activity of 1 μCi/well. After 16-h exposure, tritiated thymidine incorporation was assessed. Cells were washed with Dulbecco's phosphate-buffered saline (DPBS; Mediatech, Inc.) and removed from cell culture surface by incubation with trypsin-EDTA (Mediatech, Inc.). […] Thymidine incorporation was determined as counts per minute (cpm) on a Topcount NXT (PerkinElmer) scintillation counter. Results were expressed as cpm/well.
P-values were determined using an unpaired t-test. […]

[3] = test system: Caki-1 xenograft model; test: Caki-1 renal cell carcinoma xenograft tumor growth inhibition; type: in vivo, mouse; details: Renal Caki-1, IV 10 mg/kg BIW, 6 weeks, non-amplified, P < 0.001
Text: (§1) An exemplary xenograft experiment is as follows. For Caki-1 and MSTO-211H, five million cells were implanted subcutaneously over the right flank of SCID mice (N=10 per group). […] Representative tumor growth curves are shown for a renal cancer, Caki-1, (A), and mesothelioma, MSTO-211H, (B) xenograft cancer model. […] In the MSTO-211H mesothelioma model, FGFR1-ECD.339-Fc administration reduced tumor growth (FIG. 16b) by 64% (P<0.0001).

[4] = test system: MFE-319 xenograft model; test: MFE-319 xenograft tumor growth inhibition; type: in vivo, mouse; details: Endometrial MFE-319; IP 15 mg/kg BIW; non-amplified; P ns
Protocol: (§2) Percentage tumor growth inhibition by FGFR1-ECD.339-Fc was determined by area-under-the-curve (AUC) analysis of xenograft growth curves treated with FGFR1-ECD.339-Fc compared to albumin control. […] The difference in FGFR1-ECD.339-Fc-mediated xenograft inhibition between FGFR1 gene amplified and non-amplified lung cancer xenograft models was statistically significant (P=0.0333).
(§3) Also shown in Table 5 are the dosing schedule for FGFR1-ECD.339-Fc in a mouse xenograft model, the percent tumor growth inhibition (TGI (%)) and the statistical significance of the tumor growth inhibition (P Value), as well as whether the FGFR1 gene is amplified in the cell line.
as §1

[5] = test system: Y79 xenograft model; test: Y79 xenograft tumor growth inhibition; type: in vivo, mouse; details: Retinoblastoma Y79; IP 10 mg/kg BIW; non-amplified; P ns
Protocol: as §2, §3, §1

FGFR1-ECD.339-Fc: human FGFR1 extracellular domain ending at amino acid 339 fused to an Fc; SEQ ID NO: 6 (mature form), SEQ ID NO: 5 with signal peptide
cell number (CellTiter-Glo) [1]: reduced
cell proliferation (tritiated thymidine incorporation) [2]: reduced
TGI (%) [3]: 81%
TGI (%) [4]: 0%
TGI (%) [5]: 0%
